Data reported in patent publication US20110160123A1, “TARGETING THE EFFLUX SYSTEMS OF MYCOBACTERIUM TUBERCULOSIS” (THE UAB RESEARCH FOUNDATION, priority 2008, published 2011).
Values after ≈ are worked out from the molar mass of the structure shown. Where two headings read alike, the source gives them in different places.

Columns and labels:
M. smegmatis WT (SMR5) = assay: microbe, parasite or virus in culture; format: cell-based; details: for MIC: Mycolicibacterium smegmatis
wild-type M. bovis BCG = assay: microbe, parasite or virus in culture; format: cell-based; details: for MIC: Mycobacterium tuberculosis variant bovis BCG, BCG, read-out: MIC WT
[1] = test system: M. smegmatis ΔmspA mutant MN01; details: ΔmspA mutant compared with wild-type M. smegmatis; cited from earlier work
[2] = test system: M. smegmatis SMR5 with rv0194 expression vector pML655; format: cell-based
[3] = test system: M. smegmatis SMR5 wt (pMS2) and rv0194-expressing strain (pML655); format: cell-based
M. tuberculosis = assay: Minimal inhibitory concentration of copper on Hartmans de Bond medium; format: cell-based
[4] = test system: M. smegmatis ms3747 mutant ML77; format: cell-based; details: ms3747 mutant versus wt M. smegmatis
E. coli = details: cited from earlier work

CO[C@@H]1[C@@H](OC(N)=O)[C@@H](O)[C@H](Oc2ccc3c(O)c(NC(=O)c4ccc(O)c(CC=C(C)C)c4)c(=O)oc3c2C)OC1(C)C [Novobiocin]
MIC (M. smegmatis WT (SMR5); read-out: MIC WT): 4 µg/mL (≈ 6.53 µM)

CC1(C)S[C@@H]2[C@H](NC(=O)[C@H](N)c3ccccc3)C(=O)N2[C@H]1C(=O)O [Ampicillin]
MIC (wild-type M. bovis BCG): 62.5 µg/mL (≈ 179 µM) | MIC (M. smegmatis WT (SMR5); read-out: MIC WT): 125 µg/mL (≈ 358 µM) | increased resistance toward ampicillin [1]: 16 fold

COC(=O)[C@H]1[C@H]2C[C@@H]3c4[nH]c5cc(OC)ccc5c4CCN3C[C@H]2C[C@@H](OC(=O)c2cc(OC)c(OC)c(OC)c2)[C@@H]1OC [reserpine]
accumulation of ethidium bromide after addition of reserpine [2]: quickly reached levels observed for wt M. smegmatis | growth with reserpine in the presence of ethidium bromide [3]: completely inhibited growth of both strains

CC[n+]1c(-c2ccccc2)c2cc(N)ccc2c2ccc(N)cc21 [ethidium bromide]
MIC (M. smegmatis WT (SMR5); read-out: MIC of ethidium bromide): 1.25 µg/mL

[H]/N=C(/N)N[C@H]1[C@H](O)[C@@H](O)[C@H](O[C@@H]2O[C@@H](C)[C@](O)(C=O)[C@H]2O[C@@H]2O[C@@H](CO)[C@H](O)[C@@H](O)[C@@H]2NC)[C@@H](N/C(N)=N\[H])[C@@H]1O [Streptomycin]
MIC (wild-type M. bovis BCG): 0.5 µg/mL (≈ 0.86 µM)

[Cu] [copper]
minimal inhibitory concentration of copper (M. tuberculosis): less than 24 μM | copper concentration affecting growth, mutant relative to wt [4]: four-fold lower | minimal inhibitory concentration of copper (E. coli): ≈ 3 mM

CN[C@H](CC(C)C)C(=O)N[C@H]1C(=O)N[C@@H](CC(N)=O)C(=O)N[C@H]2C(=O)N[C@H]3C(=O)N[C@H](C(=O)N[C@H](C(=O)O)c4cc(O)cc(O)c4-c4cc3ccc4O)[C@H](O)c3ccc(c(Cl)c3)Oc3cc2cc(c3O[C@@H]2O[C@H](CO)[C@@H](O)[C@H](O)[C@H]2O[C@H]2C[C@](C)(N)[C@H](O)[C@H](C)O2)Oc2ccc(cc2Cl)[C@H]1O [Vancomycin]
MIC (wild-type M. bovis BCG): 5 µg/mL (≈ 3.45 µM) | MIC (M. smegmatis WT (SMR5); read-out: MIC WT): 1.25 µg/mL (≈ 0.863 µM)

CC[C@H]1OC(=O)[C@H](C)[C@@H](O[C@H]2C[C@@](C)(OC)[C@@H](O)[C@H](C)O2)[C@H](C)[C@@H](O[C@@H]2O[C@H](C)C[C@H](N(C)C)[C@H]2O)[C@](C)(O)C[C@@H](C)C(=O)[C@H](C)[C@@H](O)[C@]1(C)O [Erythromycin]
MIC (M. smegmatis WT (SMR5); read-out: MIC WT): 2.5 µg/mL (≈ 3.41 µM)

O=C(N[C@H](CO)[C@H](O)c1ccc([N+](=O)[O-])cc1)C(Cl)Cl [Chloramphenicol]
MIC (wild-type M. bovis BCG): 8 µg/mL (≈ 24.8 µM) | MIC (M. smegmatis WT (SMR5); read-out: MIC WT): 32 µg/mL (≈ 99 µM)

CN(C)[C@@H]1C(=O)C(C(N)=O)=C(O)[C@@]2(O)C(=O)C3=C(O)c4c(O)cccc4[C@@](C)(O)[C@H]3C[C@@H]12 [Tetracyclin]
MIC WT (wild-type M. bovis BCG): 2 µg/mL (≈ 4.5 µM) | MIC WT (M. smegmatis WT (SMR5)): 0.3 µg/mL (≈ 0.675 µM)
